Assay [1] concerns HeLa. Put plainly: cells. On the set-up: tumour cell growth suppression, dose response, 24 h. Particulars: Homo sapiens, 24 h. Here is the method:
(§1) On the basis of a previous publication, a potential CDKL3 inhibitor candidate caught our attention. […] Thus, we intended to generate an efficient CDKL3 inhibitor based on this chemical backbone for cell cycle arrest. As the first step, the original compound (ASC67) was synthesized, and the performance was evaluated ([50]). The addition of ASC67 could gradient-dependently diminish the phosphorylation of Rb by CDKL3 while not influencing CDK4 or CDK2 in vitro (Figure 8B). The effectiveness of this chemical was then evaluated using a variety of cancer cell lines, including estrogen-responsive (ER^+) breast cancer, for which palbociclib is administrated clinically ([51]). […] As a direct comparison, the clinically approved CDK4/6 inhibitor had IC50 values ranging from 1 to 5 μM in different cell lines (Figure 8, C–F, and Supplemental Figure 6, A–F) ([47], [52]–[55]). This information made it evident that ASC67 holds considerable promise in cancer treatment and can be used as a backbone compound for further optimization. Chemical treatments Cdk1/2 Inhibitor III was dissolved in DMSO with a concentration of 25mM as stock solution. Cells were treated at a final concentration of 1.2μM. 5μM was used for in vitro kinase assay. Palbociclib was dissolved in DMSO with a concentration of 100mM as stock solution. Cells were treated with Palbociclib at a final concentration of 0.8μM. 5μM was used for in vitro kinase assay. Thymidine was dissolved in ddH2O with a concentration of 200mM. Cells were treated with Thymidine at a final concentration of 2mM. ASC67 was dissolved in DMSO with a concentration of 300mM as stock solution. For IC50 assay, cells were treated at a concentration range from 0 to 300μM. For in vitro kinase assay, the concentration ranging from 0 to 0.5μM was used. The inhibitor C3I-22 (HZ1) was dissolved in DMSO with a concentration of 300mM as stock solution. For IC50 assay, cells were treated with a concentration range from 0 to 300μM. For in vitro kinase assay, the concentration ranging from 0 to 0.1μM was used. Organoids derived from colon cancer patients were treated with a concentration range from 0 to 5μM. Balb/cA-nude and C57BL/6J-Apcmin/+ mice were treated with a concentration of 1mg/kg (suspended in PBS) through oral gavage. Other C3I inhibitors were dissolved in DMSO with a concentration of 200mM as stock solution. In vitro protein purification GST-tagged proteins were transformed into E. coli BL21 competent cells, and then protein expression was induced by adding IPTG (Beyotime Biotechnology) at 18°C for 6 to 10 hours. The bacterial culture was centrifuged (600xg, 10 min, 4°C), and the pellets were resuspended in 20mL lysis buffer (50mM Tris-HCl, 300mM NaCl, and 10% (v/v) glycerol, 1mM [compound left out], pH 7.9) and sonicated with 50% power on a SCIENTZ JY92-IIN sonicator for 20 minutes (5 seconds per time, with an interval of 5 seconds).

The subject of assay [2] is MDA-MB-231. Put plainly: cells. Also on record: tumour cell growth suppression, dose response, 24 h. Particulars: Homo sapiens, MDA-MB-231, 24 h. As to the method: as §1
Assay [3] concerns U2OS. Put plainly: cells. On the set-up: tumour cell growth suppression, dose response, 24 h. To be noted: Homo sapiens, 24 h. As to the method: as §1
The subject of assay [4] is HeLa. Put plainly: cells. To be noted: Homo sapiens, 72 h. On the set-up: tumour cell growth suppression, dose response, 72 h. As to the method: as §1
The subject of assay [5] is MDA-MB-231. Put plainly: cells. To be noted: Homo sapiens, MDA-MB-231, 72 h. Also on record: tumour cell growth suppression, dose response, 72 h. Here is the method:
as §1

For assay [6], the system named is U2OS. Put plainly: cells. On the set-up: tumour cell growth suppression, dose response, 72 h. To be noted: Homo sapiens, 72 h. Here is the method:
as §1

Assay [7] deals with DLD-1. Nature of the assay: cells. On the set-up: tumour cell growth suppression, dose response, 24 h. Particulars: Homo sapiens, 24 h, parental cells. Here is the method: as §1
The test system of assay [8] is DLD-1. Put plainly: cells. Also on record: tumour cell growth suppression, dose response, 72 h. To be noted: Homo sapiens, 72 h, parental cells. As to the method:
as §1

In assay [9] the test system is MCF7. Nature of the assay: cells. On the set-up: tumour cell growth suppression, dose response, 24 h. Particulars: Homo sapiens, 24 h, parental cells. Here is the method: as §1
In assay [10] the test system is T47D. Put plainly: cells. Also on record: tumour cell growth suppression, dose response, 24 h. To be noted: Homo sapiens, 24 h, parental cells. As to the method:
as §1

The test system of assay [11] is MCF7. Put plainly: cells. On the set-up: tumour cell growth suppression, dose response, 72 h. To be noted: Homo sapiens, 72 h, parental cells. As to the method:
as §1

Assay [12] relates to T47D. Put plainly: cells. Also on record: tumour cell growth suppression, dose response, 72 h. Particulars: Homo sapiens, 72 h, parental cells. As to the method: as §1
The target in another assay is Stub1 (UniProt Q9UNE7). Nature of the assay: co-immunoprecipitation. Particulars: reference: CDK4 wild type; sites T172.
The next assay concerns the target Trim28 (UniProt Q13263). Nature of the assay: co-immunoprecipitation. To be noted: reference: CDK4 wild type; sites T172.
In the next assay the target is UBE3A (UniProt Q05086). Put plainly: co-immunoprecipitation. Particulars: reference: CDK4 wild type; sites T172.

In the case of `N#CCc1ccc(Nc2nccc(Nc3cc(C4CCCC4)n[nH]3)n2)cc1` [ASC67], the IC50 with HeLa [1] is 954 nM; in the assay with MDA-MB-231 [2] it was 1830 nM; in the assay on U2OS [3], 1810 nM; with HeLa [4], 1550 nM; with MDA-MB-231 [5] it was 381 nM; with U2OS [6], 998 nM.
Take `CC(=O)c1ccc(Nc2nccc(Nc3cc(C4CCCC4)n[nH]3)n2)cc1` [C3I-22, HZ1]: the IC50 in the assay with DLD-1 [7] worked out at 600 nM; in the assay on U2OS [3] (parental cells) it was 1320 nM; with DLD-1 [8] it was 147 nM; in the assay on U2OS [6], 348 nM; in the assay with U2OS [6] (parental cells) it was 415 nM.
As for `O=C(O)c1ccc(Nc2nccc(Nc3cc(C4CCCC4)n[nH]3)n2)cc1` [C3I-22-1, 4-((4-((3-cyclopentyl-1H-pyrazol-5-yl)amino)pyrimidin-2-yl)amino)benzoic acid], in the assay with U2OS [6], half-maximal inhibition (IC50) was put at 38800 nM.
`CC(=O)c1c(C)c2cnc(Nc3ccc(N4CCNCC4)cn3)nc2n(C2CCCC2)c1=O` [palbociclib]: the IC50 in the assay with HeLa [1] turned out to be 4240 nM; in the assay with MCF7 [9], 2880 nM; with MDA-MB-231 [2], 5200 nM; with T47D [10] it was 2150 nM; in the assay with U2OS [3], 3520 nM; with MCF7 [11], 2570 nM. In addition, the IC50 with T47D [12] is 1860 nM.
As to CDK4 (from UniProt P11802) CDK4 T172A, the “binding against the reference” value with Stub1, in the assay with Trim28 and with UBE3A was “stronger” throughout.

Values taken from publication PMC11324297, “CDKL3 is a targetable regulator of cell cycle progression in cancers” (The Journal of Clinical Investigation, 2024).
